Here are results for 2 substances from publication PMC9016025, “Translational imaging of the fibroblast activation protein (FAP) using the new ligand [^68Ga]Ga-OncoFAP-DOTAGA” (European Journal of Nuclear Medicine and Molecular Imaging, 2021).

Format in all cases: biochemical
One test concerns the target T1, human FAP (Homo sapiens, UniProt Q12884).
T1 construct: purchased BPS Bioscience 80100
T1 sequence (Q12884 1-760): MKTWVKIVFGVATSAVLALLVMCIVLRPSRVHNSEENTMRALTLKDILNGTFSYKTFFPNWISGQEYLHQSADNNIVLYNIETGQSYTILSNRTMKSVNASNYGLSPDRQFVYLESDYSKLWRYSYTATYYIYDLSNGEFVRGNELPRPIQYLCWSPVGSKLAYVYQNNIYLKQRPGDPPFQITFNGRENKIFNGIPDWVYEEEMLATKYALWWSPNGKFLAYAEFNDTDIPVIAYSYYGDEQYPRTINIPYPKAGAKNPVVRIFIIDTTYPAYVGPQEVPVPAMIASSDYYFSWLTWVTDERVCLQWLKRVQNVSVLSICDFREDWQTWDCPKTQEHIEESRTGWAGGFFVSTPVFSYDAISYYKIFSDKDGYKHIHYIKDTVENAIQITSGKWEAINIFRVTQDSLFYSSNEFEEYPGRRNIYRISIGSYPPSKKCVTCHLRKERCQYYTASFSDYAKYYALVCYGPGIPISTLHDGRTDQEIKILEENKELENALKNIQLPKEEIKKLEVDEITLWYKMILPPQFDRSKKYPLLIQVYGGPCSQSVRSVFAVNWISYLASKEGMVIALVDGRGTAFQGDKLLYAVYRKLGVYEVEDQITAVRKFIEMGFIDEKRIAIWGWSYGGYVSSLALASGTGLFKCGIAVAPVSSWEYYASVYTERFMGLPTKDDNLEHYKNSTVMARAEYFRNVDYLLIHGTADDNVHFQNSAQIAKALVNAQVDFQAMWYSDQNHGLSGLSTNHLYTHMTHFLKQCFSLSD
In words: In vitro fluorescence enzymatic inhibition assay, FAP. The note with it: for IC50: recombinant FAP, fluorogenic DPP substrate 1, n = 3. How it is done: (§1) Enzymatic inhibition activity and selectivity of OncoFAP derivatives was assessed by employing commercially available in vitro fluorescence assays for FAP, dipeptidyl peptidase 8 (DDP8), and prolyl oligo peptidase (POP) (BPS Bioscience, San Diego, CA, US). The fluorogenic substrate (Fluorogenic DPP substrate 1, Ala-Pro-AMC dipeptide, AMC: 7-amino-4-methylcumaryl) was incubated together with recombinant FAP, DDP, or POP/PREP in the presence or absence of test compounds. The enzymatic activity was correlated with the amount of cleaved fluorescent product measured by fluorescence spectroscopy. IC50 of each test compound was determined from the curves obtained by plotting fluorescence intensities at different concentrations of the inhibitor.
(§2) The synthetic fluorometric DPP substrate 1 (BPS Bioscience, San Diego, CA, USA) Catalog no. […] Reaction rates were measured from the initial 30 min of the reaction profile where product release was linear with time and plotted as a function of inhibitor dose.

Test [1] concerns the target T2, dipeptidyl peptidase 8 (DPP8) (Homo sapiens, UniProt Q6V1X1).
T2 construct: purchased BPS Bioscience 80080
As to the kind of experiment: In vitro fluorescence enzymatic inhibition assay, DPP8. Particulars: for IC50: recombinant DPP8, fluorogenic substrate. The procedure:
as §1, §2

Test [2] addresses T3, prolyl oligo peptidase (POP) (Homo sapiens, UniProt P48147).
T3 construct: purchased BPS Bioscience 80105
T3 sequence (P48147 1-710): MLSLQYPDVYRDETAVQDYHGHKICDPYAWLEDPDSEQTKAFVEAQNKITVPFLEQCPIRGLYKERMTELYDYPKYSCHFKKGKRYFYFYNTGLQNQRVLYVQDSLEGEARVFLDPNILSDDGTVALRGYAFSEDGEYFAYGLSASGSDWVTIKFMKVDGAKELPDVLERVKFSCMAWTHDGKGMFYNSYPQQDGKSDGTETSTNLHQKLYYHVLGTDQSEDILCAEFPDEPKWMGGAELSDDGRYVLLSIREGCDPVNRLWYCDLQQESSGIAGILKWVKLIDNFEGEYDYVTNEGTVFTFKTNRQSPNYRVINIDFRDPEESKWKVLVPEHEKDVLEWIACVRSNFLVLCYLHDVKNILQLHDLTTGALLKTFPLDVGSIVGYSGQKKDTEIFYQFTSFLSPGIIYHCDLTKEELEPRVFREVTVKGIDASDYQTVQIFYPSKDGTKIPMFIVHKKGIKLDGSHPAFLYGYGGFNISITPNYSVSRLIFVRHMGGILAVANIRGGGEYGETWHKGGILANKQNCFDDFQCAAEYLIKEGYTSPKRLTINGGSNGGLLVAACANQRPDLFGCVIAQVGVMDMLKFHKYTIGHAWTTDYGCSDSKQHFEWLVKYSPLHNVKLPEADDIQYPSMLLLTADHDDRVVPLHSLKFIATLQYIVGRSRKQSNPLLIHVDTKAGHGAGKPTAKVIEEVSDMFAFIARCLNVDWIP
As to the kind of experiment: In vitro fluorescence enzymatic inhibition assay, POP. Particulars: for selectivity for FAP compared to POP: from IC50 values; for IC50: recombinant POP/PREP. The procedure:
as §1, §2

T2 sequence (Q6V1X1 whole entry): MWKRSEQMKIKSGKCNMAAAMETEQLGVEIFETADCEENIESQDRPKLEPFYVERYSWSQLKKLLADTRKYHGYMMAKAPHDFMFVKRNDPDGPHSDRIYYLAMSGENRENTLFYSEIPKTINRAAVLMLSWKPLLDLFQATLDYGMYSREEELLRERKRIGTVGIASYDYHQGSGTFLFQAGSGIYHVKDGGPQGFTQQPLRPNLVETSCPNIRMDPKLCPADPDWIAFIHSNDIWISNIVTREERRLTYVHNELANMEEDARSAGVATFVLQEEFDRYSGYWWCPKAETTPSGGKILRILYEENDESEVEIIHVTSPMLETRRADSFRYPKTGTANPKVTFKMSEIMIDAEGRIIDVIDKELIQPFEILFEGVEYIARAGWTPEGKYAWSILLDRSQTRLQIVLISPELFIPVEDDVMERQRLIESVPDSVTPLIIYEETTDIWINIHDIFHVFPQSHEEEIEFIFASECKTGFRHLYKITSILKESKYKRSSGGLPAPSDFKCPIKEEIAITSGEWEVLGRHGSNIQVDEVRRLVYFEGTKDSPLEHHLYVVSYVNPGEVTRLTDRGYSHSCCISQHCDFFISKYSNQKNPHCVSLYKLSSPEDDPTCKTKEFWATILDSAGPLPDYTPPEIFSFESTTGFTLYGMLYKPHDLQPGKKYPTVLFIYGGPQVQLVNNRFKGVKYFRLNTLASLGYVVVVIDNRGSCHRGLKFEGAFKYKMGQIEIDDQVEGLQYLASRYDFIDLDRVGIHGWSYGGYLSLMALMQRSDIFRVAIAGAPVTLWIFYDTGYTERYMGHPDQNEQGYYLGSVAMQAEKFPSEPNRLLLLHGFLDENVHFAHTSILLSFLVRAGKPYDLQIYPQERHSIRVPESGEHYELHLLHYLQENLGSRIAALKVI

As usually defined, the IC50 is the point on the concentration scale where inhibition reaches its midpoint. Turning to [^natGa]Ga-FAPI-46 [^natGa-FAPI-46], the IC50 on human FAP was 8.37 ± 0.71 nM; in test [1], 10200 ± 3000 nM; in test [2], over 10000 nM. The “selectivity for FAP compared to DPP8” value in test [1] (from IC50 values) is reported as over 1000 fold. Also, in test [2], the “selectivity for FAP compared to POP” value is recorded as over 1000 fold.

For the substance “[^natGa]Ga-OncoFAP-DOTAGA [^natGa-OncoFAP]”, on human FAP (from IC50 values), the “superior FAP binding potency compared to ^natGa-FAPI-46” value was “ca. 16 fold”. Besides, the results for the IC50 (at human FAP; in test [1]; in test [2] (fluorogenic substrate)) were 0.51 ± 0.11 nM, 6870 ± 111 nM and 49.2 ± 6.3 nM, respectively. For the same substance, the “selectivity for FAP compared to POP” value in test [2] is 96 fold.
